From PubChem BioAssay (NCI)
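All cell lines were grown in 96-well plates and treated with compound for 48 hours. TGI: total growth inhibition.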

Experiments:
Experiment in all cases: inhibition of tumour cell growth, NCI panel, 48 h
A498 renal = system: A498 renal
BT-549 breast = system: BT-549 breast
CAKI-1 renal = system: CAKI-1 renal
COLO 205 colon = system: COLO 205 colon
HCC-2998 colon = system: HCC-2998 colon
HOP-92 NSCLC = system: HOP-92 NSCLC
HS 578T breast = system: HS 578T breast
MALME-3M melanoma = system: MALME-3M melanoma
MCF7 breast = system: MCF7 breast
MDA-MB-435 = system: MDA-MB-435
NCI-H226 lung = system: NCI-H226 lung
NCI/ADR-RES ovarian = system: NCI/ADR-RES ovarian
PC-3 prostate = system: PC-3 prostate
SK-MEL-28 melanoma = system: SK-MEL-28 melanoma
SK-MEL-5 melanoma = system: SK-MEL-5 melanoma
SN12C renal = system: SN12C renal
UACC-257 melanoma = system: UACC-257 melanoma
UACC-62 melanoma = system: UACC-62 melanoma
NCI-H460 lung = system: NCI-H460 lung

| Structure (SMILES) | TGI (A498 renal) [µM] | TGI (BT-549 breast) [µM] | TGI (CAKI-1 renal) [µM] | TGI (COLO 205 colon) [µM] | TGI (HCC-2998 colon) [µM] | TGI (HOP-92 NSCLC) [µM] | TGI (HS 578T breast) [µM] | TGI (MALME-3M melanoma) [µM] | TGI (MCF7 breast) [µM] | TGI (MDA-MB-435) [µM] | TGI (NCI-H226 lung) [µM] | TGI (NCI/ADR-RES ovarian) [µM] | TGI (PC-3 prostate) [µM] | TGI (SK-MEL-28 melanoma) [µM] | TGI (SK-MEL-5 melanoma) [µM] | TGI (SN12C renal) [µM] | TGI (UACC-257 melanoma) [µM] | TGI (UACC-62 melanoma) [µM] | TGI (NCI-H460 lung) [µM] |
| --- | --- | --- | --- | --- | --- | --- | --- | --- | --- | --- | --- | --- | --- | --- | --- | --- | --- | --- | --- |
| C[N+]1(CCC[N+]2(C)CC3C4C=CC(CC4)C3C2)CCOCC1 (stereo not given) | > 100 | > 100 | > 100 | > 100 | > 100 | > 100 | > 100 | > 100 | > 100 | > 100 | > 100 | > 100 | > 100 | > 100 | > 100 | > 100 | > 100 | > 100 | – |
| NC(Cc1ncccn1)C(=O)O (stereo not given) | > 100 | > 100 | > 100 | > 100 | > 100 | > 100 | > 100 | > 100 | > 100 | > 100 | > 100 | > 100 | > 100 | > 100 | > 100 | > 100 | > 100 | > 100 | > 100 |
| COC(=O)/C=C\C(C#N)(C#N)N=Cc1sccc1C | 27.9 | 11.1 | 3.51 | 2.53 | 28.6 | 3.9 | 37.1 | 11.3 | 3.13 | 9.84 | 13.2 | 32.7 | 19.8 | 20.1 | 4.78 | 22.3 | 23.3 | 17 | 31.4 |
| COc1c2c(cc3c1C1(O)Cc4ccc5c(c4C[N+]1(C)CC3)OCO5)OCO2 (stereo not given) | > 100 | > 100 | > 100 | > 100 | > 100 | > 100 | > 100 | > 100 | > 100 | > 100 | > 100 | > 100 | > 100 | > 100 | > 100 | > 100 | > 100 | > 100 | > 100 |
| Cc1cccc2c(N)c3cccc(C(=O)NCC[N+]4(Cc5ccc([N+](=O)[O-])cc5)CCOCC4)c3nc12 | > 100 | > 100 | > 100 | > 100 | 60.5 | 71.8 | > 77 | > 100 | > 100 | > 100 | > 100 | > 100 | > 100 | > 100 | > 100 | > 100 | > 100 | > 100 | > 62.5 |
| CC(C)/C(=N\[N+](C)(C)C)c1ccccc1 | > 100 | > 100 | > 100 | > 100 | > 100 | > 100 | > 100 | > 100 | > 100 | > 100 | > 100 | > 100 | > 100 | > 100 | > 100 | > 100 | > 100 | > 100 | > 100 |
| COP(=O)(OC)/C(=C/c1cn(C(c2ccccc2)(c2ccccc2)c2ccccc2)cn1)NC=O | 32 | 30.6 | 62.3 | 32.9 | 33.3 | 68 | 43.2 | 38.5 | 33.7 | 40.1 | 98.9 | > 100 | > 100 | 93.6 | 27.5 | 46.4 | – | 41.3 | 34.9 |
| O=C(NNS(=O)(=O)c1ccccc1)c1cccnc1 | > 100 | > 100 | > 100 | > 100 | > 100 | > 100 | > 100 | > 100 | > 100 | > 100 | > 100 | > 100 | > 100 | > 100 | > 100 | > 100 | > 100 | > 100 | > 100 |
| O=C(Nc1sccc1S(=O)(=O)c1ccccc1)c1ccccc1 | > 100 | > 100 | > 100 | > 100 | > 100 | > 100 | > 100 | > 100 | > 100 | > 100 | > 100 | > 100 | > 100 | > 100 | > 100 | > 100 | > 100 | > 100 | > 31.6 |
| C=CCN(c1cc(OC)c2[nH]c(C(=O)OCC)c(C)c2c1[N+](=O)[O-])S(C)(=O)=O | 65.6 | 60.5 | > 100 | 29.1 | > 100 | 72.4 | 58.7 | 60.8 | 52.2 | 64.7 | 25.3 | 72.6 | 38.1 | > 100 | 44.8 | 56.1 | > 100 | 61.7 | > 100 |
| C=CCc1cc(C(Cc2ccccc2)NC(C)C)cc(OCc2ccccc2)c1OCc1ccccc1 (stereo not given) | 29.2 | 31.4 | 29.5 | 31.3 | 26.7 | 25.3 | 37.1 | 28.9 | 32 | 29.2 | 36.2 | 30.7 | 28.8 | 30.2 | 30.6 | 29.4 | 34.4 | 28.4 | 28.5 |
| CO[C@@H]1C[C@H](OC(N)=O)[C@@H]2C=C[C@@H]3/C=C(C)/C=C/[C@@H](C)[C@H](/C(C)=C/[C@@H](C)NC(C)=O)OC(=O)/C=C/C=C(C)\C=C\[C@]3(C)[C@@H]2C1 | 0.0867 | 12 | 0.167 | 0.514 | 0.664 | 0.148 | 0.0455 | 0.798 | 17 | 3.11 | – | 2.69 | 1.58 | 0.458 | 0.604 | 1.67 | 0.0866 | 0.292 | – |
| CN(C(=O)Cc1cc(Cl)c(Cl)cc1NC(=O)CN)[C@H]1CCCC[C@@H]1N1CCCC1 | 51.2 | > 100 | > 100 | – | 31.6 | > 100 | 64 | 36.1 | > 100 | 32.6 | – | > 100 | > 100 | – | – | > 100 | 33.9 | 30.2 | > 100 |
| CC[C@H](C)C1=C(O)[N@+]2([O-])Oc3ccc(-c4c(O)c(O)c(-c5ccc(O)cc5)c(OC(C)=O)c4OC(C)=O)cc3O[C@]2([C@@H](C)CC)C(=O)N1O | > 50 | > 50 | > 50 | > 50 | – | 32.1 | > 50 | > 50 | > 50 | > 50 | – | > 50 | > 50 | > 50 | > 50 | > 50 | > 50 | > 50 | > 50 |
| CC(C)(C)C1=CC(=C2C=Cc3ccccc3O2)C=C(C(C)(C)C)C1=O | 16.4 | 22.1 | 29.6 | 4.71 | 2.99 | > 51 | > 47.6 | 14.5 | 13.1 | 5.11 | 25.6 | 14.8 | 16.2 | 22.2 | 13.9 | 15.3 | 13.2 | 8.04 | 4.04 |
| O=C(O)c1ccc(Nc2nc3cc(C(F)(F)F)ccc3n3cccc23)cc1 | > 100 | > 100 | > 100 | 37 | 44.6 | > 100 | > 100 | > 100 | > 100 | > 100 | – | > 100 | 93.5 | > 100 | 38.8 | – | 71.6 | 77.8 | 38.7 |
| CC(C)(C)OC(=O)CN1CCN(CC(=O)N2CCN(C(=O)OCc3ccccc3)CC2)CCN(CC(=O)OC(C)(C)C)CCN(CC(=O)N2CCN(C(=O)OCc3ccccc3)CC2)CC1 | 35.7 | 14.5 | 23.4 | 2.64 | 6.55 | 11.4 | 5.67 | 7.94 | 14.9 | 7.36 | 22.8 | 34.4 | 12.5 | 16.2 | 3.92 | 16.3 | 5.92 | 7.59 | 6.98 |
| COc1cccc2cc(C(C)=O)c(=O)oc12 | > 100 | > 100 | > 100 | > 100 | > 100 | > 100 | > 100 | > 100 | > 100 | > 100 | > 100 | > 100 | > 100 | > 100 | > 100 | > 100 | > 100 | > 100 | > 100 |
| CCN(CC)c1ccc2cc(C(=O)Nc3ccc(C)cc3)c(=N)oc2c1 | > 100 | > 100 | > 100 | > 100 | > 100 | > 100 | > 100 | > 100 | > 100 | > 100 | > 100 | > 100 | > 100 | > 100 | > 100 | > 100 | > 100 | > 100 | > 100 |
| CCOC(=O)C(C)c1nc2ccc(C(F)(F)F)cc2[nH]c1=O (stereo not given) | > 100 | > 100 | – | > 100 | > 100 | > 100 | > 100 | > 100 | > 100 | > 100 | > 100 | > 100 | > 100 | > 100 | > 100 | > 100 | > 100 | > 100 | > 100 |
| COC(=O)/C=C(\S/C=C(/c1ccccc1)N1CCn2c(C(=O)c3ccccc3)c(C(=O)OC)c(C(=O)OC)c21)C(=O)OC | > 10 | > 10 | > 10 | 3.46 | > 10 | 4.73 | > 10 | 4.81 | 4.33 | > 10 | > 10 | > 10 | > 10 | – | > 10 | > 10 | 9.21 | > 10 | > 10 |
| CCOC(=O)C(O)(C(=O)OCC)c1cc(C(C)(C)C)c(O)c(C(C)(C)C)c1 | > 100 | > 100 | > 100 | 90.1 | – | > 100 | > 100 | > 100 | > 100 | > 100 | > 100 | > 100 | > 100 | > 100 | 32.9 | > 100 | > 100 | > 100 | – |
| C(=Nc1ccc(-c2nc3ccccc3[nH]2)cc1)c1ccco1 | > 100 | > 100 | > 100 | > 100 | > 100 | > 100 | > 100 | > 100 | > 100 | > 100 | > 100 | > 100 | > 100 | > 100 | > 100 | > 100 | > 100 | > 100 | – |
| C=CCOc1ccccc1C1(O)c2ccccc2C2=NCCCN21 (stereo not given) | > 100 | > 100 | > 100 | 78.9 | 30.3 | > 100 | > 100 | – | > 100 | > 100 | 76.4 | > 100 | 57.2 | 52.2 | > 100 | > 100 | > 100 | > 100 | > 100 |
| Nc1ccc(-c2nc3ccccc3s2)cc1C#Cc1ccccc1 | 42.5 | 34.7 | 37.2 | 31 | – | 52.8 | 50.2 | 28.5 | 19.2 | 36 | 49.2 | 48.6 | 45.4 | – | 31.1 | 37.1 | 31.3 | 33.9 | 35.1 |
